Test results from patent publication US10875875B2, “Propionic acid derivatives and methods of use thereof” (Aviara Pharmaceuticals, Inc., priority 2017, dated 2020).

Target: α4β1 (Homo sapiens, UniProt P05556+P13612)
Experiment: α4β1 integrin inhibition, IC50
Assay type: binding
Details: read-out: α4β1 IC50

Sequence of α4β1 (P13612 34-1032): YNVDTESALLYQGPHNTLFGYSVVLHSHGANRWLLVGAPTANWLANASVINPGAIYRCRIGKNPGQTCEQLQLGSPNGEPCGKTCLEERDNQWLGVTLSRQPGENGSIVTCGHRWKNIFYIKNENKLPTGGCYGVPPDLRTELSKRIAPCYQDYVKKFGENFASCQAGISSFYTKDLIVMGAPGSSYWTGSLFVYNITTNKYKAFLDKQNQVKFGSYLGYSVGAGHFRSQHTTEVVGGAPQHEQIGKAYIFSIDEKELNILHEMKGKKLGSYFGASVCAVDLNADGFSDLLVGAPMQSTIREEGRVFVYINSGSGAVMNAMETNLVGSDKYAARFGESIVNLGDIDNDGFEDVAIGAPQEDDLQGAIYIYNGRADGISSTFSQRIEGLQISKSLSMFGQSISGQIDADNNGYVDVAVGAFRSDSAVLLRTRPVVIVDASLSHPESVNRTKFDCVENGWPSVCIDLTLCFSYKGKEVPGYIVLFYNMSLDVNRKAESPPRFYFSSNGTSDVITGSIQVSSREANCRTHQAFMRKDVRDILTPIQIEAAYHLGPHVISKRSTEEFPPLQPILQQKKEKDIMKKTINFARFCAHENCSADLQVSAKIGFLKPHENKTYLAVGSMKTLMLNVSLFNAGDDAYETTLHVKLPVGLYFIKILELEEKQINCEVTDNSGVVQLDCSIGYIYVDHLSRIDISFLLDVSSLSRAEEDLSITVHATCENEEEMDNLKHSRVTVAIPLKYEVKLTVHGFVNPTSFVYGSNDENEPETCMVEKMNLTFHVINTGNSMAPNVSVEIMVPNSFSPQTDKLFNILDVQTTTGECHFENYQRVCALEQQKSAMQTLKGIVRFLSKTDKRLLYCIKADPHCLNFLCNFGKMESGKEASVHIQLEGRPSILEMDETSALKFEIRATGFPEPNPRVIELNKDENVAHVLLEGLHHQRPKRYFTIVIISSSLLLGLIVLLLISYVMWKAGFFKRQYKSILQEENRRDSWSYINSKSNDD
Sequence of α4β1 (P05556 21-798): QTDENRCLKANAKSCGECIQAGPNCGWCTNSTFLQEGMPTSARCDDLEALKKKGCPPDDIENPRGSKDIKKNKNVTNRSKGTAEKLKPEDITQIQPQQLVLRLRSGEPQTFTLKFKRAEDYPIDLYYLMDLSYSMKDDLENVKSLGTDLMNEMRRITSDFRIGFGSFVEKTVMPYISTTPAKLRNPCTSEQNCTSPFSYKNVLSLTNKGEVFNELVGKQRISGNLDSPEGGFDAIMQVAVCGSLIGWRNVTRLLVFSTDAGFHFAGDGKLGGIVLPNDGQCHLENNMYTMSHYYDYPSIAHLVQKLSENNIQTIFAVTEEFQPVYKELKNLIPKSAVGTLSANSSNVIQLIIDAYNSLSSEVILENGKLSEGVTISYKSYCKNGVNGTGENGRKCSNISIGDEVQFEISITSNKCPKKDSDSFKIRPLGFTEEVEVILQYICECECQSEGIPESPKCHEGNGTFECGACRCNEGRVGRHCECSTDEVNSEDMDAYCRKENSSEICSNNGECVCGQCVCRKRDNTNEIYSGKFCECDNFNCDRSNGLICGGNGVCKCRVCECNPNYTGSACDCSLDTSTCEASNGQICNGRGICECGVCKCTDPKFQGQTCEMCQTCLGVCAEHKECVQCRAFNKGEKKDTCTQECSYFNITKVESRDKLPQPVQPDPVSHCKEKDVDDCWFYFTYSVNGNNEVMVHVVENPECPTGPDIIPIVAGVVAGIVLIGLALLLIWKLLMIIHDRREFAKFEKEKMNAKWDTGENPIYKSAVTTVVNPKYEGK

Row | IC50 [nM] | SMILES
1 | < 20 | Cc1ccc([C@H](CC(=O)O)NC(=O)Nc2c(O)cc(C)n(C)c2=O)cc1-c1cccc(OC(F)(F)F)c1 [1-577, sodium (S)-3-(3-(1,6-dimethyl-4-oxido-2-oxo-1,2-dihydropyridin-3-yl)ureido)-3-(6-methyl-3′-(trifluoromethoxy)biphenyl-3-yl)propanoate]
2 | < 20 | Cc1cccc(C)c1-c1cc([C@H](CC(=O)O)NC(=O)Nc2c(O)cc(C)n(C)c2=O)ccc1F [1-578, sodium (S)-3-(3-(1,6-dimethyl-4-oxido-2-oxo-1,2-dihydropyridin-3-yl)ureido)-3-(6-fluoro-2′,6′-dimethylbiphenyl-3-yl)propanoate]
3 | < 20 | COc1cc(-c2ccc(F)cc2F)cc([C@H](CC(=O)O)NC(=O)Nc2c(O)cc(C)n(C)c2=O)c1 [1-581, sodium (S)-3-(2′,4′-difluoro-5-methoxybiphenyl-3-yl)-3-(3-(1,6-dimethyl-4-oxido-2-oxo-1,2-dihydropyridin-3-yl)ureido)propanoate]
4 | < 20 | Cc1cscc1-c1ccc([C@H](CC(=O)O)NC(=O)Nc2c(O)ccn(C)c2=O)s1 [1-584, sodium (S)-3-(4′-methyl-2,3′-bithiophen-5-yl)-3-(3-(1-methyl-4-oxido-2-oxo-1,2-di hydropyridin-3-yl)ureido)propanoate]
5 | < 20 | Cc1cscc1-c1ccc([C@H](CC(=O)O)NC(=O)Nc2c(O)cc(C)n(C)c2=O)s1 [1-585, sodium (S)-3-(3-(1,6-dimethyl-4-oxido-2-oxo-1,2-dihydropyridin-3-yl)ureido)-3-(4′-methyl-2,3′-bithiophen-5-yl)propanoate]
6 | < 20 | COc1cccc(-c2cc(C)cc([C@H](CC(=O)O)NC(=O)Nc3c(O)cc(C)n(C)c3=O)c2)c1 [1-586, sodium (S)-3-(3-(1,6-dimethyl-4-oxido-2-oxo-1,2-dihydropyridin-3-yl)ureido)-3-(3′-methoxy-5-methylbiphenyl-3-yl)propanoate]
7 | < 20 | Cc1cccc(C)c1-c1ccc([C@H](CC(=O)O)NC(=O)Nc2c(O)ccn(C)c2=O)s1 [1-587, sodium (S)-3-(5-(2,6-dimethylphenyl)thiophen-2-yl)-3-(3-(1-methyl-4-oxido-2-oxo-1,2-dihydropyridin-3-yl)ureido)propanoate]
8 | < 20 | Cc1cccc(C)c1-c1ccc([C@H](CC(=O)O)NC(=O)Nc2c(O)cc(C)n(C)c2=O)s1 [1-588, sodium (S)-3-(3-(1,6-dimethyl-4-oxido-2-oxo-1,2-dihydropyridin-3-yl)ureido)-3-(5-(2,6-dimethylphenyl)thiophen-2-yl)propanoate]
9 | < 20 | Cc1cccc(C)c1-c1ccc(F)c([C@H](CC(=O)O)NC(=O)Nc2c(O)cc(C)n(C)c2=O)c1 [1-589, sodium (S)-3-(3-(1,6-dimethyl-4-oxido-2-oxo-1,2-dihydropyridin-3-yl)ureido)-3-(4-fluoro-2′,6′-dimethylbiphenyl-3-yl)propanoate]
10 | < 20 | Cn1ccc(O)c(NC(=O)N[C@@H](CC(=O)O)c2cc(-c3ccc(F)cc3F)ccc2F)c1=O [1-591, sodium (S)-3-(3-(1-methyl-4-oxido-2-oxo-1,2-dihydropyridin-3-yl)ureido)-3-(2′,4,4′-trifluorobiphenyl-3-yl)propanoate]
11 | < 20 | Cc1cc(O)c(NC(=O)N[C@@H](CC(=O)O)c2cc(-c3ccc(F)cc3F)ccc2F)c(=O)n1C [1-592, sodium (S)-3-(3-(1,6-dimethyl-4-oxido-2-oxo-1,2-dihydropyridin-3-yl)ureido)-3-(2′,4,4′-trifluorobiphenyl-3-yl)propanoate]
12 | < 20 | COc1cccc(-c2ccc(F)c([C@H](CC(=O)O)NC(=O)Nc3c(O)ccn(C)c3=O)c2)c1 [1-593, sodium (S)-3-(4-fluoro-3′-methoxybiphenyl-3-yl)-3-(3-(1-methyl-4-oxido-2-oxo-1,2-dihydropyridin-3-yl)ureido)propanoate]
